From US11021446B2 (NOVARTIS AG, priority 2013, dated 2021)

Target: T1, human Farnesoid X Receptor (FXR) ligand binding domain (GST-FXR LBD) (Homo sapiens, UniProt Q96RI1)
T1 construct: purchased Invitrogen
T1 sequence (Q96RI1 193-472 isoform Q96RI1-2): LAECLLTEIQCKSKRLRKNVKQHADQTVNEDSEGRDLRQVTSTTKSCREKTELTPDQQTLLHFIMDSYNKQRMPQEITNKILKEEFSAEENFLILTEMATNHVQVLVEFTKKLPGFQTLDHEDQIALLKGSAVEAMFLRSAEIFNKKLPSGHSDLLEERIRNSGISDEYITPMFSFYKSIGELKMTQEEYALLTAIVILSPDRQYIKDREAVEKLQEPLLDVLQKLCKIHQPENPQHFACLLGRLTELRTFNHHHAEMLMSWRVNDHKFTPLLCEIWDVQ
Assay: Human GST-FXR LBD co-activator interaction assay (FXR HTRF assay)
Format: biochemical
Settings: GST-FXR LBD interaction with biotin-labeled SRC-1 peptide, FRET, response relative to GW4064, read-out: FXR coactivator interaction assay (HTRF)
Excerpt: Human GST-FXR LBD Co-Activator Interaction Assay
The FXR HTRF assay is a biochemical assay measuring the interaction between FXR and a coactivator protein (SRC1). The ligand-induced interaction with a coactivator protein is a critical step in transcriptional activation by FXR. Thus, this is an assay designed to measure FXR agonist activity of the test compounds.
Recombinant human Farnesoid X Receptor (FXR) ligand binding domain (amino acids 193-472) fused to glutathione S-transferase (GST) purified protein (GST-FXR LBD) was purchased (Invitrogen). The ligand-dependent interaction between GST-FXR LBD and a peptide derived from Steroid Receptor Coactivator-1 (SRC-1) was monitored by Fluorescence Resonance Energy Transfer (FRET). […] Test compounds (in DMSO solution) and detection reagents (anti-GST-Cryptate labeled antibody and Streptavidin-XL665 conjugate; CisBio) were added in assay buffer containing 50 mM KF. Plates are incubated at room temperature in the dark for 2.5 hrs before reading on an Envision (PerkinElmer) at 665 nm and 590 nm. The HTRF assay results were calculated from the 665 nm/590 nm ratio (ratio=(A665 nm/A590 nm)×10^4) and expressed in Delta F %=(Ratiosample−Rationegative)/Rationegative×100.
A negative control (without Streptavidin-XL665) was run with each assay and represented the background fluorescence. A reference FXR agonist, (E)-3-(2-chloro-4-((3-(2,6-dichlorophenyl)-5-isopropylisoxazol-4-yl)methoxy)styryl)benzoic acid (Compound GW4064), was included in each experiment as positive control. The efficacy of each test compound was compared to that of GW4064. At each concentration, the relative activity of the test compound was expressed as Response %=(Rsample−RDMSO)/(Rpositive−RDMSO), where Rsample is the HTRF response (expressed in Delta F %) for the test compound, Rpositive is the maximal response for GW4064 at saturating concentrations, and RDMSO is the response for DMSO control. The EC50 values were calculated using GraphPad Prism (GraphPad Software) using non-linear regression curve fit (log(agonist) vs. response-variable slope (four parameters)).

Question: How did the EC50 turn out when `Cn1nc(C(=O)N(CCOc2ccc(C(=O)O)cc2F)Cc2cccc(F)c2)c2c1-c1cc(F)c(F)cc1OC2` [Compound 59, 4-(2-(7,8-difluoro-N-(3-fluorobenzyl)-1-methyl-1,4-dihydrochromeno[4,3-c]pyrazole-3-carboxamido)ethoxy)-3-fluorobenzoic acid] was run?
Answer: The EC50 was 28 nM.

Question: For `Cn1nc(C(=O)N(CCOc2ccc(C(=O)O)cc2F)Cc2ccccc2F)c2c1-c1cc(F)ccc1OC2` [Compound 61, 3-fluoro-4-(2-(8-fluoro-N-(2-fluorobenzyl)-1-methyl-1,4-dihydrochromeno[4,3-c]pyrazole-3-carboxamido)ethoxy)benzoic Acid], which EC50 is on record?
Answer: Its EC50 is 89 nM.

Question: With `Cn1nc(C(=O)N(CCOc2ccc(C(=O)O)cc2F)Cc2ccccc2F)c2c1-c1cc(F)c(F)cc1OC2` [Compound 62, 4-(2-(7,8-difluoro-N-(2-fluorobenzyl)-1-methyl-1,4-dihydrochromeno[4,3-c]pyrazole-3-carboxamido)ethoxy)-3-fluorobenzoic acid] as the compound, how does the EC50 read?
Answer: The EC50 was 74 nM.

Question: With `Cn1nc(C(=O)N(CCNc2cccc(C(=O)O)c2)Cc2ccccc2F)c2c1-c1cc(Cl)ccc1OC2` [Compound 63, 3-((2-(8-chloro-N-(2-fluorobenzyl)-1-methyl-1,4-dihydrochromeno[4,3-c]pyrazole-3-carboxamido)ethyl)amino)benzoic Acid] as the compound, how does the EC50 read?
Answer: Its EC50 is 6 nM.

Question: With `Cn1nc(C(=O)N(CC(=O)Nc2cc(C(=O)O)ccc2F)Cc2ccccc2F)c2c1-c1cc(Cl)ccc1OC2` [Compound 64, 3-(2-(8-chloro-N-(2-fluorobenzyl)-1-methyl-1,4-dihydrochromeno[4,3-c]pyrazole-3-carboxamido)acetamido)-4-fluorobenzoic Acid] as the compound, how does the EC50 read?
Answer: The EC50 was 0.6 nM.

Question: `Cn1nc(C(=O)N(CCNc2cc(C(=O)O)ccc2F)Cc2cccc(F)c2)c2c1-c1cc(Cl)ccc1OC2` [Compound 65, 3-((2-(8-chloro-N-(3-fluorobenzyl)-1-methyl-1,4-dihydrochromeno[4,3-c]pyrazole-3-carboxamido)ethyl)amino)-4-fluorobenzoic Acid] was tested. Which EC50 did it give?
Answer: Its EC50 is 7 nM.

Question: How did the EC50 turn out when `Cn1nc(C(=O)N(CCNc2cc(C(=O)O)ccc2F)Cc2ccccc2F)c2c1-c1cc(F)ccc1OC2` [Compound 69, 4-fluoro-3-((2-(8-fluoro-N-(2-fluorobenzyl)-1-methyl-1,4-dihydrochromeno[4,3-c]pyrazole-3-carboxamido)ethyl)amino)benzoic acid] was run?
Answer: The EC50 was 25 nM.

Question: `Cn1nc(C(=O)N(CCNc2cc(C(=O)O)ccc2F)Cc2ccccc2F)c2c1-c1ccccc1OC2` [Compound 70, 4-fluoro-3-((2-(N-(2-fluorobenzyl)-1-methyl-1,4-dihydrochromeno[4,3-c]pyrazole-3-carboxamido)ethyl)amino)benzoic acid] was tested. Which EC50 did it give?
Answer: The EC50 was 81 nM.

Question: How did the EC50 turn out when `Cn1nc(C(=O)N(CCNc2cc(C(=O)O)ccc2F)Cc2ccccc2)c2c1-c1cc(F)ccc1OC2` [Compound 71, 3-((2-(N-benzyl-8-fluoro-1-methyl-1,4-dihydrochromeno[4,3-c]pyrazole-3-carboxamido)ethyl)amino)-4-fluorobenzoic acid] was run?
Answer: Its EC50 is 22 nM.

Question: `Cn1nc(C(=O)N(CCNc2cc(C(=O)O)ccc2F)Cc2ccccc2)c2c1-c1cc(Cl)ccc1OC2` [Compound 72, 3-((2-(N-benzyl-8-chloro-1-methyl-1,4-dihydrochromeno[4,3-c]pyrazole-3-carboxamido)ethyl)amino)-4-fluorobenzoic acid] was tested. Which EC50 did it give?
Answer: Its EC50 is 2.6 nM.

Question: How did the EC50 turn out when `Cn1nc(C(=O)N(CCNc2cc(C(=O)O)ccc2F)Cc2cccc(F)c2)c2c1-c1cc(F)c(F)cc1OC2` [Compound 73, 3-((2-(7,8-difluoro-N-(3-fluorobenzyl)-1-methyl-1,4-dihydrochromeno[4,3-c]pyrazole-3-carboxamido)ethyl)amino)-4-fluorobenzoic acid] was run?
Answer: Its EC50 is 20 nM.

Question: Which EC50 does the source give for `Cn1nc(C(=O)N(CCNc2cc(C(=O)O)ccc2F)Cc2ccccc2)c2c1-c1cc(F)c(F)cc1OC2` [Compound 74, 3-((2-(N-benzyl-7,8-difluoro-1-methyl-1,4-dihydrochromeno[4,3-c]pyrazole-3-carboxamido)ethyl)amino)-4-fluorobenzoic acid] here?
Answer: Its EC50 is 55 nM.

Question: For `Cn1nc(C(=O)N(Cc2ccccc2)Cc2ccc(C(=O)O)cc2)c2c1-c1cc(Cl)ccc1OC2` [Compound 75, 4-((N-benzyl-8-chloro-1-methyl-1,4-dihydrochromeno[4,3-c]pyrazole-3-carboxamido)methyl)benzoic Acid], which EC50 is on record?
Answer: Its EC50 is 6 nM.

Question: Which EC50 does the source give for `Cn1nc(C(=O)N(Cc2ccccc2)Cc2ccc(C(=O)O)cc2F)c2c1-c1cc(Cl)ccc1OC2` [Compound 76, 4-((N-benzyl-8-chloro-1-methyl-1,4-dihydrochromeno[4,3-c]pyrazole-3-carboxamido)methyl)-3-fluorobenzoic acid] here?
Answer: The EC50 was 9.6 nM.

Question: For `Cn1nc(C(=O)N(Cc2ccc(C(=O)O)cc2)Cc2cccc(F)c2)c2c1-c1cc(F)ccc1OC2` [Compound 77, 4-((8-fluoro-N-(3-fluorobenzyl)-1-methyl-1,4-dihydrochromeno[4,3-c]pyrazole-3-carboxamido)methyl)benzoic acid], which EC50 is on record?
Answer: Its EC50 is 7.9 nM.

Question: Which EC50 does the source give for `Cn1nc(C(=O)N(Cc2ccc(C(=O)O)cc2)Cc2cc(F)cc(F)c2)c2c1-c1cc(Cl)ccc1OC2` [Compound 78, 4-((8-chloro-N-(3,5-difluorobenzyl)-1-methyl-1,4-dihydrochromeno[4,3-c]pyrazole-3-carboxamido)methyl)benzoic acid] here?
Answer: Its EC50 is 8.3 nM.

Question: `Cn1nc(C(=O)N(Cc2ccccc2)Cc2ccc(C(=O)O)cc2F)c2c1-c1cc(F)ccc1OC2` [Compound 79, 4-((N-benzyl-8-fluoro-1-methyl-1,4-dihydrochromeno[4,3-c]pyrazole-3-carboxamido)methyl)-3-fluorobenzoic acid] was tested. Which EC50 did it give?
Answer: Its EC50 is 22 nM.

Question: Which EC50 does the source give for `Cc1cccc(CN(Cc2ccc(C(=O)O)cc2)C(=O)c2nn(C)c3c2COc2ccc(Cl)cc2-3)c1` [Compound 80, 4-((8-chloro-1-methyl-N-(3-methylbenzyl)-1,4-dihydrochromeno[4,3-c]pyrazole-3-carboxamido)methyl)benzoic acid] here?
Answer: Its EC50 is 16 nM.

Question: For `Cn1nc(C(=O)N(Cc2ccc(C(=O)O)cc2)Cc2cccc(F)c2F)c2c1-c1cc(Cl)ccc1OC2` [Compound 81, 4-((8-chloro-N-(2,3-difluorobenzyl)-1-methyl-1,4-dihydrochromeno[4,3-c]pyrazole-3-carboxamido)methyl)benzoic acid], which EC50 is on record?
Answer: The EC50 was 21 nM.

Question: Which EC50 does the source give for `Cc1cc(F)cc(CN(Cc2ccc(C(=O)O)cc2)C(=O)c2nn(C)c3c2COc2ccc(Cl)cc2-3)c1` [Compound 82, 4-((8-chloro-N-(3-fluoro-5-methylbenzyl)-1-methyl-1,4-dihydrochromeno[4,3-c]pyrazole-3-carboxamido)methyl)benzoic acid] here?
Answer: The EC50 was 12 nM.

Question: How did the EC50 turn out when `Cn1nc(C(=O)N(Cc2ccc(C(=O)O)cc2)Cc2cc(F)cc(F)c2)c2c1-c1cc(F)ccc1OC2` [Compound 83, 4-((N-(3,5-difluorobenzyl)-8-fluoro-1-methyl-1,4-dihydrochromeno[4,3-c]pyrazole-3-carboxamido)methyl)benzoic acid] was run?
Answer: The EC50 was 14 nM.

Question: `Cc1cccc(CN(Cc2ccc(C(=O)O)cc2F)C(=O)c2nn(C)c3c2COc2ccc(Cl)cc2-3)c1` [Compound 84, 4-((8-chloro-1-methyl-N-(3-methylbenzyl)-1,4-dihydrochromeno[4,3-c]pyrazole-3-carboxamido)methyl)-3-fluorobenzoic acid] was tested. Which EC50 did it give?
Answer: Its EC50 is 18 nM.

Question: Which EC50 does the source give for `Cc1cccc(CN(Cc2ccc(C(=O)O)cc2F)C(=O)c2nn(C)c3c2COc2ccc(F)cc2-3)c1` [Compound 85, 3-fluoro-4-((8-fluoro-1-methyl-N-(3-methylbenzyl)-1,4-dihydrochromeno[4,3-c]pyrazole-3-carboxamido)methyl)benzoic acid] here?
Answer: Its EC50 is 35 nM.

Question: For `Cn1nc(C(=O)N(Cc2ccc(C(=O)O)cc2)Cc2ccc3[nH]ccc3c2)c2c1-c1cc(Cl)ccc1OC2` [Compound 86, 4-((N-((1H-indol-5-yl)methyl)-8-chloro-1-methyl-1,4-dihydrochromeno[4,3-c]pyrazole-3-carboxamido)methyl)benzoic acid], which EC50 is on record?
Answer: Its EC50 is 12 nM.

Question: How did the EC50 turn out when `Cn1nc(C(=O)N(Cc2ccc(C(=O)O)nc2)Cc2cccc(F)c2)c2c1-c1cc(Cl)ccc1OC2` [Compound 87, 5-((8-chloro-N-(3-fluorobenzyl)-1-methyl-1,4-dihydrochromeno[4,3-c]pyrazole-3-carboxamido)methyl)picolinic acid] was run?
Answer: The EC50 was 28 nM.
